The assay concerns the target T1, Myriococcum thermophilum cellobiose dehydrogenase (CDH, SEQ ID NO: 1) variant W316L (Thermothelomyces myriococcoides, UniProt A9XK88, W316L).
T1 sequence (A9XK88 22-828 W316L): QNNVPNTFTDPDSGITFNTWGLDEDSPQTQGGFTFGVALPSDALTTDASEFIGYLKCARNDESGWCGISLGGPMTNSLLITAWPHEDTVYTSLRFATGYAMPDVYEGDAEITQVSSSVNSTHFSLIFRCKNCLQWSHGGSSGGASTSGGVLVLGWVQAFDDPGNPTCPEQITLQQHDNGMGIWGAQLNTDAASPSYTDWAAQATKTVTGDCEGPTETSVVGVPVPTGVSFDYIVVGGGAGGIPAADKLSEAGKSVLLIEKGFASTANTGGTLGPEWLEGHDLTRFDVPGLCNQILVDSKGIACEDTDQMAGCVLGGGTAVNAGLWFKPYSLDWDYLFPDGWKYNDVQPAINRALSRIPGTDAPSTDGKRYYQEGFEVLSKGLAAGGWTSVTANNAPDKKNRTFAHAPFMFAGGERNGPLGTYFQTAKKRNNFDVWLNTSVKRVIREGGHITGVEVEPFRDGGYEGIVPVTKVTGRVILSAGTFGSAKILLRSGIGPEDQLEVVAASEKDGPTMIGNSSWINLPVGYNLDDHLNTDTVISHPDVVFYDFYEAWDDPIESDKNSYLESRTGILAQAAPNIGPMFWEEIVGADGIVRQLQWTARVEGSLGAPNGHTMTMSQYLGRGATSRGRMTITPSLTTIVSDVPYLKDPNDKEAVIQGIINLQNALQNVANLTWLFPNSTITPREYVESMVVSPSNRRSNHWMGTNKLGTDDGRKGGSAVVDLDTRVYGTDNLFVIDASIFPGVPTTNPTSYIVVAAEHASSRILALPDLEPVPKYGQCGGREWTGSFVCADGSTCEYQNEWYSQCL
The assay is described as follows: Steady-state kinetics, DCIP assay: M. thermophilum CDH W316L. Format: biochemical. As to conditions: apparent, pH 4.5, 30° C. As for the experimental part:
Enzyme activity was assayed at 30° C. using either the DCIP (Karapetyan et al., 2005 Journal of Biotechnology 121: 34-48) or cytochrome c (Canevascini et al., 1991, European Journal of Biochemistry 198: 43-52) as electron acceptor. […] Stock solutions of carbohydrates used for kinetic measurements were prepared in the respective buffer and allowed to stand overnight for mutarotation, while stock solutions of electron acceptors were prepared in water and immediately used. The reaction stoichiometry is 1 for the two-electron acceptor DCIP (1 mole of DCIP reduced per mole of carbohydrate oxidized), but 2 for the one-electron acceptor cytochrome c. Kinetic constants were calculated by fitting the observed data to the Henri-Michaelis-Menten equation or to the adapted model for substrate inhibition using nonlinear least-squares regression and the program SigmaPlot (Systat Software, San Jose, Calif., USA). […]
Recombinant wild-type CDH as well as variants were produced in 1 L baffled flasks. […] Increase in activity was monitored using the DCIP and the cytochrome c enzyme assays. […]
The sample was loaded on a 20 mL PHE Sepharose FF column (HR26/20) equilibrated with 50 mM Na-acetate buffer pH 5.5 containing 20% ammonium sulfate. […] Fractions were tested for CDH activity and pooled according to the highest Reinheitszahl (RZ, calculated from the absorbance ratio 420 nm/280 nm). […]

Structures are written as SMILES.

What is called kcat/KM is the turnover number divided by the Michaelis constant. By kcat is commonly meant the maximal rate divided by the concentration of active sites. In the case of `OC[C@H]1O[C@H](O[C@H]2[C@H](O)[C@@H](O)C(O)O[C@@H]2CO)[C@H](O)[C@@H](O)[C@@H]1O` (some centres unmarked) [Maltose, maltose], the kcat/KM is 2.6 M⁻¹ s⁻¹. The kcat (~ values only estimated by non linear regression) was 0.59 s⁻¹.

The record behind these values is patent publication US10184115B2, “Mutated cellobiose dehydrogenase with increased substrate specificity” (DIRECTSENS GMBH, priority 2012, dated 2019).
